Reference: article PMC3433414, “Oral Administration of the Pimelic Diphenylamide HDAC Inhibitor HDACi 4b Is Unsuitable for Chronic Inhibition of HDAC Activity in the CNS In Vivo” (PLoS ONE, 2012)
In brackets after ≈: the same amount, converted by molar mass. Where two headings read alike, the source gives them in different places. Values belong to the compound of their own block, whether it stands above or below them.

Key:
CB2 (h) = target: T1, CB2 (h) (Homo sapiens, UniProt P34972); experiment: Cerep binding, agonist radioligand; details: read-out: % inhibition of control specific binding
T1 construct: purchased Cerep (Diversity Profile)
T1 sequence (P34972 whole entry): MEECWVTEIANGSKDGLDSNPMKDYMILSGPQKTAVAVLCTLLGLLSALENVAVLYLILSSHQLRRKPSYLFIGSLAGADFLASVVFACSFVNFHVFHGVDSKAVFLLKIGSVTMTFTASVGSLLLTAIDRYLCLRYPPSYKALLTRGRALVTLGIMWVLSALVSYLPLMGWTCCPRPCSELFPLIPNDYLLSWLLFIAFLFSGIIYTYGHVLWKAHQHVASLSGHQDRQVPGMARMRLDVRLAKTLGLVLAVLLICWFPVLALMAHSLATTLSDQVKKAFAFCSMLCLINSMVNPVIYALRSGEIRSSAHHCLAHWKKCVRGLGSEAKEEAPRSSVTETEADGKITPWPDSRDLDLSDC
Text: (§1) In addition to the HDAC profiling performed, we also queried 4b for any apparent potential off-target effects, which could complicate any finding of efficacy or adverse events in vivo due to ‘polypharmacy’. This was accomplished by screening against a ‘diversity panel’ of 72 binding and 29 enzyme assays, comprised of roughly equal numbers of selective central and peripheral therapeutically relevant targets (Cerep Diversity Profile). This panel included representative targets from diverse enzyme families, G protein coupled receptors, steroid nuclear receptors, voltage- and ligand-gated ion channels. While not totally inclusive, it is a useful tool for discovery compounds to assess their viability as proof of concept molecules to specifically query a particular target. 4b was initially screened at 10 µM in duplicate. The full set of results is provided as Table S1. […] This clean in vitro profile was considered acceptable to proceed to ADME and pharmacokinetic studies.

EP2 (h) = target: T2, EP2 (h) (Homo sapiens, UniProt P43116); experiment: Cerep binding, agonist radioligand; details: read-out: % inhibition of control specific binding
T2 construct: purchased Cerep (Diversity Profile)
T2 sequence (P43116 whole entry): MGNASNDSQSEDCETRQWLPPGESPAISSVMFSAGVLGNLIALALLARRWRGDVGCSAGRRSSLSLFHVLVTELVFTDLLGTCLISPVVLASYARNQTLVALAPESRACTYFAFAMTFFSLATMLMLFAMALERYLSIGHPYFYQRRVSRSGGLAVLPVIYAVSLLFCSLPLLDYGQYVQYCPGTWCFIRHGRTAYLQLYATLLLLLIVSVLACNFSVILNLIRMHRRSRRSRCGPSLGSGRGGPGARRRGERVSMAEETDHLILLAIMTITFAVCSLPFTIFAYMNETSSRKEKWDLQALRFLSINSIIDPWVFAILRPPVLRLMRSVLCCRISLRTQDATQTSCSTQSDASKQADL
Text: as §1

BLT1 (LTB4) (h) = target: T3, BLT1 (LTB4) (h) (Homo sapiens, UniProt Q15722); experiment: Cerep binding, agonist radioligand; details: read-out: % inhibition of control specific binding
T3 construct: purchased Cerep (Diversity Profile)
T3 sequence (Q15722 whole entry): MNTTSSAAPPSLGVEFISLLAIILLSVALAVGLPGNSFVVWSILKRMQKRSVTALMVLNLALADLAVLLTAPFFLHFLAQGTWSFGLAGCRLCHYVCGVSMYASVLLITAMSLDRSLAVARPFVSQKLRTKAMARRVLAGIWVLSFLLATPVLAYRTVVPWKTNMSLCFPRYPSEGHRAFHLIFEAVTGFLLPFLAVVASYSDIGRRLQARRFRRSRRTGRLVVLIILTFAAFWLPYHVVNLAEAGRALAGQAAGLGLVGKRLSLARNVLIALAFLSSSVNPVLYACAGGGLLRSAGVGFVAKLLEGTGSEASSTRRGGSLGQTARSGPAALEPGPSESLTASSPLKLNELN
Text: as §1

CysLT1 (LTD4) (h) = target: T4, CysLT1 (LTD4) (h) (Homo sapiens, UniProt Q9Y271); experiment: Cerep binding, agonist radioligand; details: read-out: % inhibition of control specific binding
T4 construct: purchased Cerep (Diversity Profile)
T4 sequence (Q9Y271 whole entry): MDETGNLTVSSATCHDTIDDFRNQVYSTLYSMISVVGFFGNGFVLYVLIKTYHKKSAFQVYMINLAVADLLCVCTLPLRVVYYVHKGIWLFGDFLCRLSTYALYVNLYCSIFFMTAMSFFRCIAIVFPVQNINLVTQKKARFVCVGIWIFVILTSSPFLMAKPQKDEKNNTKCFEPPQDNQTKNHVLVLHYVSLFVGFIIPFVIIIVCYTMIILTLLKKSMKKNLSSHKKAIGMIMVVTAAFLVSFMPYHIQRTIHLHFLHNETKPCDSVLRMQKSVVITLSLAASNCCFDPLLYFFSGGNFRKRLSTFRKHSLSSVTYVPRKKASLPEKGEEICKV
Text: as §1

NK1 (h) = target: T5, NK1 (h) (Homo sapiens, UniProt P25103); experiment: Cerep binding, agonist radioligand; details: read-out: % inhibition of control specific binding
T5 construct: purchased Cerep (Diversity Profile)
T5 sequence (P25103 whole entry): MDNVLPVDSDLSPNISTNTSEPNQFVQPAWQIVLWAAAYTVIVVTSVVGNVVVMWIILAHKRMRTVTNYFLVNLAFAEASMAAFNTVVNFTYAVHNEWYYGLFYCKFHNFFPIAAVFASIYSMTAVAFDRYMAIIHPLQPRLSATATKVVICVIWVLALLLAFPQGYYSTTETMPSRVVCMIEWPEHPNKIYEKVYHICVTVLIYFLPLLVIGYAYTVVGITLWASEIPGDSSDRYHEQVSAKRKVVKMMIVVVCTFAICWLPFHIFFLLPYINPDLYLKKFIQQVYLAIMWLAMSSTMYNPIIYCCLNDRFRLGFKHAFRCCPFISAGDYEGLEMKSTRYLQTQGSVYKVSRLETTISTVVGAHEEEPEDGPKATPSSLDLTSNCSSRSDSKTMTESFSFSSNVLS
Text: as §1

PPAR (h) = target: T6, PPAR (h) (Homo sapiens, UniProt P37231); experiment: Cerep binding, agonist radioligand; details: read-out: % inhibition of control specific binding
T6 construct: purchased Cerep (Diversity Profile)
T6 sequence (P37231 whole entry): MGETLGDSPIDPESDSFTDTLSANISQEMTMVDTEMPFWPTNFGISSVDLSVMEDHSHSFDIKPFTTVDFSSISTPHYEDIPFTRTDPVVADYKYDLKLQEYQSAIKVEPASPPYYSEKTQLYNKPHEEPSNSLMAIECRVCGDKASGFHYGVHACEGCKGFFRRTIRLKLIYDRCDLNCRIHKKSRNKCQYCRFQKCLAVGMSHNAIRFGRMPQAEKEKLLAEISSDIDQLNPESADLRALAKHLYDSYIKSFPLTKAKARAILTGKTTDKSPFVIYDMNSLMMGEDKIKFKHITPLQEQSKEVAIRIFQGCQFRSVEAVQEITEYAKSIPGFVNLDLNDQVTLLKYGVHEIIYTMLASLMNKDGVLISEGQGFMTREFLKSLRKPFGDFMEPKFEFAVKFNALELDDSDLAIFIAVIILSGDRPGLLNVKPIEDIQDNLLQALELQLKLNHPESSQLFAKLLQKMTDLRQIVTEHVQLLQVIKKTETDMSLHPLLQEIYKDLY
Text: as §1

Plasma stability = type: in vitro ADME, mouse; details: fresh mouse plasma, 5 µM; for half-life at 5 µM: pooled mouse plasma, duplicates
Description: Incubations of test compound (5 µM initial concentration, n = 2) were carried out with pooled mouse plasma or BSA (45 mg/mL in 0.1 M phosphate buffered saline). The incubations were performed at 37°C. Samples (50 µL) were obtained from the incubation at 0, 10, 30, 120, 240, 360 and 1440 min, and added to 150 µL of acetonitrile containing carbamazepine as analytical internal standard to terminate the reaction. Samples were centrifuged and the supernatant fractions analysed by LC-MS/MS.
For half-life determinations, the instrument responses (peak areas) normalized for internal standard response, were referenced to the zero time-point samples (as 100%) in order to determine the percentage of compound remaining. Ln plots of the % remaining, for each compound, were used to determine the half-life for the plasma incubations. Half-life values were calculated from the relationship:-. [drawing 1] Where λ was the slope of the natural logarithmic (Ln) concentration vs time curve.
When quantification was required, calibration standards for parent compound and metabolites were prepared in control plasma and extracted and analysed as described for the study samples. Quantification of parent compound or metabolite was by extrapolation from the calibration line.

[1] = Hepatic microsomal stability; type: in vitro ADME, mouse; details: for predicted in vivo plasma clearance: from mouse microsomal half-life; for half-life at 1 µM: pooled hepatic microsomes, pH 7.4, mouse
Description: Incubations of test compounds (1 µM initial concentration, n = 2) were carried out with pooled hepatic microsomes (0.25 mg protein/mL in 0.1 M phosphate buffer pH 7.4). NADPH (1 mM) was added to initiate the reactions. The incubations were performed at 37°C. Samples (100 µL) were taken from the incubation at 0, 5, 10, 20 and 40 min and added to 100 µL of acetonitrile containing carbamazepine as analytical internal standard, to terminate the reaction. Samples were centrifuged and the supernatant fractions analysed by LC-MS/MS. The instrument responses (i.e. chromatographic peak heights), normalized by internal standard response were referenced to the zero time-point samples (as 100%) in order to determine the percentage of compound remaining.
Ln plots of the % remaining, for each compound, were used to determine the half-life for the microsomal incubations.
Half-life values were calculated from the relationship. [drawing 2] where λ was the slope of the Ln concentration vs time curve.
The in vitro intrinsic clearance, CLint (µL/min/mg microsomal protein), was calculated using the following formula: [drawing 3]
When quantification was required, calibration standards for parent compound and metabolites were prepared in control hepatic microsomes and extracted and analysed as described for the study samples. Quantification of parent compound or metabolite was by extrapolation from the calibration line.

[2] = Solubility in water, formulations and DMSO; type: physicochemical
Description: Thomas and colleagues reported that a solution of 4b at 1 mg/mL was previously obtained using this procedure. […] We therefore prepared both TFA and hydrochloride (HCl) salts of 4b to establish whether they could offer improved solubility. Neither salt form of 4b was particularly soluble in water (<1 mg/ml). […] A study of the stability of the TFA salt also raised another more worrying issue in the use of 2-hydroxypropyl-β-cyclodextrin–complexed 4b salts for potential in vivo studies. […] The 4b. TFA cyclodextrin suspension targeted at 1 mg/ml with heating gave an initial (day 1) measured value of 0.75 mg/ml total 4b, with only 0.27 mg/mL solubilised as quantified in the sample after filtration. The lower than expected initial quantification of 4b was most likely due to the TFA salt rapidly degrading upon heating. Indeed, we always found the presence of the cyclised benzimidazole conversion product, named throughout as product C1, in the salt formulations even at t = 0 after preparation. Furthermore, the suspension was not stable upon standing in the dark with gentle shaking at room temperature, with a further 28% decrease observed in parent (4b) concentration on day 7 analysis, compared to day 1.
As a consequence de novo formulation attempts were made with the stable free base form. After several trials with different excipients, we were able to reach a soluble formulation preparation of 1 mg/ml 4b in 2% N-methyl-2-pyrollidone, 18% polyethylene glycol 400, 10% solutol HS-15 and 70% (1% Lutrol F68 in water), a vehicle which we have previously used without any adverse effects in R6/2 model chronic efficacy trials, but is unlikely to be palatable to mice in drinking water. With this concentration, a single oral gavage dose will result in a maximum of 10 mg/kg dose level (assuming a maximum dose volume of […]), considerably lower than that estimated to have been used by Thomas et al (150 mg/kg day in drinking water). In an attempt to replicate the original dose level as close as possible, it became necessary to formulate the test compound in suspension. We achieved a stable homogeneous suspension of free base 4b up to 100 mg/ml in 0.5% carboxymethylcellulose (medium viscosity) in reverse osmosis deionized (RODI) water. This suspension was used to evaluate the oral pharmacokinetics of 4b in mice. […]

ER (non‐selective) (h) = experiment: Cerep binding, agonist radioligand; parameters: species or system human; details: 10 μM
Text: as §1

[3] = mouse, 1 µM, with NADPH, read-out: in vitro half-life in hepatic microsomes

SMILES: Nc1ccccc1NC(=O)CCCCCC(=O)Nc1ccccc1 [Compound 4b]
inhibition at 10 µM (CB2 (h)): 0% | inhibition at 10 µM (EP2 (h)): 15% | inhibition at 10 µM (BLT1 (LTB4) (h)): 2% | inhibition at 10 µM (CysLT1 (LTD4) (h)): 0% | inhibition at 10 µM (NK1 (h)): 7% | inhibition at 10 µM (PPAR (h)): 13% | time to complete conversion to amide hydrolysis products (M1 and M2) (Plasma stability): ≤ 6 h | half-life at 5 µM (Plasma stability): 114 min | parent remaining ([1]; after 40 min incubation with mouse hepatic microsomes): 16% | predicted in vivo plasma clearance [1]: 43.3 mL/min/kg | predicted clearance as share of liver plasma flow ([1]; mouse): approximately 87% | half-life at 1 µM [1, 3]: ~20 min | solubility ([2]; NMP/PEG400/Solutol HS-15/Lutrol F68 aqueous vehicle, aqueous with cosolvent or surfactant or cyclodextrin, free base, 2% N-methyl-2-pyrollidone, 18% polyethylene glycol 400, 10% solutol HS-15, 70% (1% Lutrol F68 in water), read-out: soluble formulation concentration): 1000 µg/mL (≈ 3.07 mM) | 4b dissolved (filtrate of suspension) ([2]; free base, 2-hydroxypropyl-β-cyclodextrin 1∶5 molar ratio, target 1 mg/mL): 0.1 mg/mL | solubility in water ([2]; neutral pH, free base): highly insoluble | solubility in DMSO ([2]; prepared at 1 mg/ml): soluble | % inhibition of control specific binding (ER (non‐selective) (h)): 2%

inhibition at 10 µM (CB2 (h); 10 μM): 3% | inhibition at 10 µM (EP2 (h); 10 μM): 24% | inhibition at 10 µM (BLT1 (LTB4) (h); 10 μM): 0% | inhibition at 10 µM (CysLT1 (LTD4) (h); 10 μM): 0% | inhibition at 10 µM (NK1 (h); 10 μM): 9% | inhibition at 10 µM (PPAR (h); 10 μM): 13% | half-life at 5 µM (Plasma stability): 216 min | concentration of C1 in incubations with 4b ([1]; all incubations with 4b, below the limit of quantification): < 100 nM | predicted in vivo plasma clearance [1]: > 48.2 mL/min/kg | half-life at 1 µM [1, 3]: < 5 min | half-life at 1 µM ([1]; mouse, without NADPH, read-out: in vitro half-life in liver microsomes): 7 min | solubility in aqueous media [2]: readily soluble | % inhibition of control specific binding (ER (non‐selective) (h)): 4%
SMILES: O=C(CCCCCc1nc2ccccc2[nH]1)Nc1ccccc1 [Compound C1, 6-(1-H-benzo[d]imidazol-2-yl)-N-phenylhexanamide]
